# Reference: patent US20050100577A1, “Expandable medical device with beneficial agent matrix formed by a multi solvent system” (priority 2003, published 2005)
# Experiments:
# [1] = cited from earlier work
# [2] = From the text: A second drug, such as paclitaxel, which is soluble in anisole can be provided in the top layers. Therefore, the arrangement shown in FIG. 4 can include 2-CdA in the first therapeutic agent layer 60 and paclitaxel in the second therapeutic agent layer 70.
compound,measurement,setting,value
"Nc1nc(Cl)nc2c1ncn2[C@H]1C[C@H](O)[C@@H](CO)O1 [2-CdA, 2-chlorodeoxyadenosine]",water solubility,[1],about 4.5 mg/ml
same,"solubility in first solvent, DMSO",[2],very soluble
same,"solubility in second solvent, anisole",[2],marginal solubility
